From patent US20260364080A1, “PYRAZOLO-PYRIMIDINONE COMPOUNDS FOR USE IN METHODS OF INHIBITING WEE1 A KINASE” (Acrivon Therapeutics, Inc., priority 2023, published 2026)

Key:
uterine serous carcinoma = conditions: phase II study, women with uterine serous carcinoma; cited from earlier work
[1] = tested on: RAS/TP53 mutated metastatic colorectal cancer; conditions: cited from earlier work
DAOY cells = assay: Cell Titer Glo viability assay, DAOY cells; assay type: cell-based; conditions: Homo sapiens, 144 h, absolute EC50
Protocol: (§1) Each of an ACHN renal cell carcinoma cell line (ATCC) and a DAOY medulloblastoma cell line, and an A427 lung cancer line were cultured in Minimum Essential Medium Eagle supplemented with 10% fetal calf serum (Sigma), 1% Penicillin-Streptomycin and 10 mM HEPES buffer (HyClone). Cell cultures were kept in a humidified incubator at 37 °C and 5% CO2. Cells were routinely tested for Mycoplasma contamination.
(§2) ACHN cells, DAOY cells, or A427 cells were seeded at a density of 400, 250, or 500 cells per well respectively, in tissue culture treated 384 well plates (Corning Costar). After overnight incubation, cells were treated with drugs at concentrations ranging from 17 to 10 000 nM. Viability compared to untreated control was assessed at 144 h using Cell Titer Glo assay 2.0 (Promega). […] “NT” means the compounds was not tested in the indicated cells.

[2] = molecular target: T1, Myt1 kinase (recombinant PMYT-1) (Homo sapiens, UniProt Q99640); assay: Myt1 kinase binding assay (LanthaScreen Eu Kinase Binding Assay); conditions: 3 nM tracer 178, 2.5 nM PMYT-1, 1 nM Eu-labeled antibody; read-out: Myt1 kinase Binding IC50
T1 construct: full length PMYT-1 was expressed by baculovirus in insect cells; purchased Invitrogen A30984; host or cells: insect cells (baculovirus)
T1 sequence (Q99640 1-499): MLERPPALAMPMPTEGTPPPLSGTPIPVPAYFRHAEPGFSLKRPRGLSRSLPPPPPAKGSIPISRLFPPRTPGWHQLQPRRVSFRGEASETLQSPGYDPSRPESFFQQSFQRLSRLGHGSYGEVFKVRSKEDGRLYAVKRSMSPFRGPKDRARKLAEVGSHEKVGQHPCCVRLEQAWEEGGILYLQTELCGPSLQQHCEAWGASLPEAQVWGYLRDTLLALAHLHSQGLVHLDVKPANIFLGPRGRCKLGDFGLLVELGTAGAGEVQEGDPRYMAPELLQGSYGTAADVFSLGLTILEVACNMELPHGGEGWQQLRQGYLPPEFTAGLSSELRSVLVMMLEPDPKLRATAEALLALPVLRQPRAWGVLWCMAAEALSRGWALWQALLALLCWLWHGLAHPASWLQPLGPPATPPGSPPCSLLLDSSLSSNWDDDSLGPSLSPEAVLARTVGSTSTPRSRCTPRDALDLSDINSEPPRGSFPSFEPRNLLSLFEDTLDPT
Method in brief: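 Compound binding to Myt1 kinase was assessed using the LanthaScreen Eu Kinase Binding Assay. This europium-based binding format was applied to quantify how strongly each compound bound to the Myt1 enzyme, and the binding affinity was reported for each compound as an IC50 value.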

[3] = molecular target: T2, Wee1A kinase (CDK1 Tyr15 phosphorylation in ACHN renal cell carcinoma cells) (Homo sapiens, UniProt P30291); assay: High-content imaging of pCdk1 Y15, Wee1A kinase target engagement in ACHN cells; assay type: cell-based; conditions: 4 h treatment, nuclear positivity for pCdk1 Y15 vs DMSO control, read-out: CDK1 Tyr15 Phosphorylation EC50
T2 construct: pCDK1 Tyr15 immunofluorescence read-out
T2 sequence (P30291 whole entry): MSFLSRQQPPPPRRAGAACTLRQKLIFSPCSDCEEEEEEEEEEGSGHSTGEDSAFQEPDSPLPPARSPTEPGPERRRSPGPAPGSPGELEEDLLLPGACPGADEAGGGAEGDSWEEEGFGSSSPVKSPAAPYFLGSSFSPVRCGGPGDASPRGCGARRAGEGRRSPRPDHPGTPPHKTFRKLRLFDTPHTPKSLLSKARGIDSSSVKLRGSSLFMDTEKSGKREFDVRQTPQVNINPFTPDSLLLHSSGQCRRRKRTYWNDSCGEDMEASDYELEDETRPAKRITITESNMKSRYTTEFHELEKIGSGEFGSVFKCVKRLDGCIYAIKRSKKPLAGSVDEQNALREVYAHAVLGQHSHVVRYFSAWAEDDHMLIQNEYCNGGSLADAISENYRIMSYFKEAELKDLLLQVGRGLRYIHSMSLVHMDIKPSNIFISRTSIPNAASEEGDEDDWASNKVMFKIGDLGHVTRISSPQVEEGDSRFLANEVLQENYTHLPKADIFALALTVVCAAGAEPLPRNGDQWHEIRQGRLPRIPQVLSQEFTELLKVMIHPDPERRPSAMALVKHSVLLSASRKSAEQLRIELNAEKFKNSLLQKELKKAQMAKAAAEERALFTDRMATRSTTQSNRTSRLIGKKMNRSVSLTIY
Method in brief: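 EC50 values come from the per-well fraction of cells with nuclear pCdk1 Y15 staining, normalised to DMSO control, by automated immunofluorescence imaging. Cells were ACHN renal carcinoma, treated 4 h with compound at 7–5,000 nM or 0.3–200 nM.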

[4] = molecular target: T3, recombinant human Wee1A kinase (Homo sapiens, UniProt P30291); assay: Wee1A kinase binding assay (LanthaScreen Eu time-resolved FRET); conditions: 30 nM tracer 178, 5 nM Wee1A kinase, 2 nM Eu-labeled antibody; 60 minutes at room temperature; read-out: Wee1A kinase Binding IC50
T3 construct: full length Wee1 kinase was expressed by baculovirus in insect cells; purchased Invitrogen PV3817; host or cells: insect cells (baculovirus)
T3 sequence (P30291 whole entry): as above
Method in brief: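 Full-length, baculovirus-expressed GST-tagged Wee1A (5 nM) was mixed with 2 nM Eu-anti-GST antibody, 30 nM kinase tracer 178 and compound (1% DMSO). Buffer was 50 mM HEPES pH 7.5, 10 mM MgCl2, 1 mM EGTA, 0.01% Brij-35, incubated 60 min at room temperature. TR-FRET 665/615 nm emission ratios from duplicates were curve-fitted.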

[5] = molecular target: T4, Myt1 kinase (CDK1 Thr14 phosphorylation in ACHN renal cell carcinoma cells) (Homo sapiens, UniProt Q99640); assay: AlphaLISA assay, Myt1 kinase target engagement (phospho-CDK1 Thr14) in ACHN cells; assay type: cell-based; conditions: ACHN cells (marked *); 4 h treatment
T4 construct: pCDK1 Thr14 AlphaLISA read-out
T4 sequence (Q99640 1-499): T1 sequence (Q99640 1-499)
Method in brief: (§3)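 Cells seeded at 10,000 (DAOY) or 20,000 (ACHN) per well, treated 24 h later for 4 h with compound at 7–5000 nM. Lysates analysed by AlphaLISA SureFire Ultra phospho-CDK1 (Thr14) with donor/acceptor beads; EC50 from dose-response curves.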

ACHN cells = assay: Cell Titer Glo viability assay, ACHN cells; assay type: cell-based; conditions: Homo sapiens, 144 h, absolute EC50
Method in brief: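 Cells grown in MEM with 10% FCS were seeded at 500 (A427), 400 (ACHN) or 250 (DAOY) per well and treated the next day with compound at 17 to 10 000 nM. Viability relative to untreated control was read at 144 h by CellTiter-Glo 2.0.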

A427 cells = assay: Cell Titer Glo viability assay, A427 cells; assay type: cell-based; conditions: Homo sapiens, A-427, 144 h, absolute EC50
Protocol: as §1, §2

[6] = molecular target: T5, Myt1 kinase (CDK1 Thr14 phosphorylation in DAOY medulloblastoma cells) (Homo sapiens, UniProt Q99640); assay: AlphaLISA assay, Myt1 kinase target engagement (phospho-CDK1 Thr14) in DAOY cells; assay type: cell-based; conditions: 4 h treatment, read-out: CDK1 Thr14 Phosphorylation EC50
T5 construct: pCDK1 Thr14 AlphaLISA read-out
T5 sequence (Q99640 1-499): T1 sequence (Q99640 1-499)
Method in brief: as §3

SMILES	clinical activity (uterine serous carcinoma)	effect compared to active monitoring [1]	EC50 (DAOY cells)	IC50 [2]	EC50 [3]	IC50 [4]	EC50 [5]	EC50 (ACHN cells)	EC50 (A427 cells)	EC50 [6]
C=CCn1c(=O)c2cnc(Nc3ccc(N4CCN(C)CC4)cc3)nc2n1-c1cccc(C(C)(C)O)n1 [AZD1775, adavosertib]	promising results	shown effect compared to active monitoring								
CCn1c(=O)c2cnc(Nc3ccc4c(cnn4C)c3)nc2n1-c1cccc(OC2CCN(C)CC2)n1 [Compound 114, 2-ethyl-6-(1-methyl-1H-indazol-5-ylamino)-1-[6-(1-methyl-4-piperidyloxy)-2-pyridyl]-1,2-dihydro-3H-1,2,5,7-tetraazainden-3-one]			≤ 100 nM	20 to 100 nM	< 100 nM	< 10 nM	500 to 1000 nM	≤ 100 nM	100 to 500 nM	
C=CCn1c(=O)c2cnc(Nc3cccc(C)c3)nc2n1-c1cccc(OC2CCNCC2)n1 [Compound 296, 2-allyl-1-(6-(piperidin-4-yloxy)pyridin-2-yl)-6-(m-tolylamino)-1,2-dihydro-3H-pyrazolo[3,4-d]pyrimidin-3-one]			≤ 100 nM	20 to 100 nM	< 100 nM	< 10 nM		≤ 100 nM	≤ 100 nM	200 to 500 nM
